According to US11576987B2, “Compositions and methods of treating melanoma” (UNIVERSITY OF IOWA RESEARCH FOUNDATION, priority 2016, dated 2023):
Where a name gives a salt, the structure may show the parent alone.

Columns and labels:
MCR1 expression = experiment: Flow cytometry analysis of MCR1 expression in malignant melanoma cells; format: cell-based, human; details: BRAF^V600E mutant melanoma cell lines (A2058, A375), 3 mmole 4-PBA, 4 h and 24 h
Description: FIG. 1: Flowcytometry analysis of MCR1 expression in A375 malignant melanoma cells. A375 cells were treated with either 2 μmole Vemurafenib or 3 mmole 4-PBA for 4 h and 24 h (n=3). The treated and untreated (control) cells were stained with anti-MC1R-phycoerythrin (PE) monoclonal antibody conjugate. Fluorescence intensity was corrected by auto-fluorescence of cells without staining and data were expressed as relative (vs control) fluorescence intensity±SD. Statistical significance was determined by Student's T-test (*P<0.05; **P<0.01; ***P<0.001; ****P<0.0001).
FIG. 2: Flowcytometry analysis of MCR1 expression in A2058 malignant melanoma cells. […] Fluorescence intensity was corrected by auto-fluorescence of cells without staining and data were expressed as relative (vs control) fluorescence intensity±SD. Statistical significance was determined by Student's T-test (*P<0.05; **P<0.01; ***P<0.001; ****P<0.0001).
FIG. 3: Flowcytometry analysis of MCR1 expression in SK-Me13 malignant melanoma cells. […] Fluorescence intensity was corrected by auto-fluorescence of cells without staining and data were expressed as relative (vs control) fluorescence intensity±SD. Statistical significance was determined by Student's T-test (*P<0.05; **P<0.01; ***P<0.001; ****P<0.0001, N. S. non-significant).
FIGS. 11A-11D. […] Fluorescence intensity was corrected by PE-conjugated isotype. […]

[1] = PBA co-administration: kidney and tumor uptake of [203Pb]DOTA-MCR1; format: in vivo, mice; details: PBA 120 mg/kg co-administered i.v. or i.p., 2 h p.i.
Description: FIGS. 14A-14B. […] Results are ID %/g tissue±SD; **P<0.01; ****P<0.0001. (B Right) Pre-administered of PBA (i.p. 60 mg/kg) and BRAFi (vemurafenib; p.o. 5 mg/kg) 3 h prior to tail vein injection of 13 MBq [^203Pb]DOTA-MCR1 in human (A2058) melanoma-bearing athymic nu/nu mice (SPECT image 1 h p.i.); (B Left) An identical animal was administered an identical dose of [^203Pb]DOTA-MCR1 without PBA/BRAFi (saline). Images were identically processed and analyzed using Inveon Workplace software (identical contrast, intensity, etc.).
PBA relieves ER-stress through nonspecific binding to misfolded proteins in the ER. Thus, it was hypothesized that co-injection could inhibit peptide uptake in kidneys in the same fashion as amino acid co-infusions used clinically. This is reasonable because the megalin-cubulin system for reuptake and recirculation of nutrients in the proximal and distal tubules involves nonspecific binding and endocytosis of proteins, amino acids, and nutrients. results support the hypothesis that co-injection of PBA can serve to reduce kidney accumulation of radiopeptides in the kidneys (FIGS. 14A-B).

MC1R expression = experiment: Real-time PCR analysis of MC1R expression in melanoma cells; format: cell-based, human; details: substantiated by flow cytometry and radiopeptide binding
Description: FIG. 10. Real-time PCR analysis of MC1R expression in A2058 and MEWO melanoma cells. A2058 cells were exposed to BRAFi GSK2118436, MEKi GSK1120212 and HDACi PBA for 24 h. Similarly, MEWO cells were treated with PBA and SAHA. Total RNA was isolated and reverse transcripted to cDNA. Real-time PCR was performed using 50 ng of each cDNA sample with labeled primer VIC-MC1R and FAM-NADPH. mRNA fold changes were calculated by ΔΔCt method and expressed as (n=3; Mean±SEM).
qPCR measurements are included to measure the change in MCR1 mRNA with changes in the concentration and incubation time for each drug and combinations (FIG. 10). These experiments are carried out as in FIG. 10 according to manufacturers' protocols, cells are seeded into 6-well plates until ˜80% confluent. After drug treatments, total RNA is isolated (Qiagen RNeasy Mini Kit). 1 μg of total RNA from each cell sample is used for reverse transcription using a high capacity reverse transcription kit (Applied Biosystem). cDNA samples are kept at −80° C. until use. Upon use, cDNA templates are employed in the qRT-PCR using a Taqman Gene Expression Assay for human MC1R (Assay ID: Hs00267167_s1). Human 18S (Assay ID: Hs99999901_s1) and human GAPDH (Assay ID: Hs03929097_g1) are used as housekeeping gene controls. […] Reactions are carried out in Applied Biosystem 7900HT. mRNA level is calculated by comparative ΔΔCt method.

O=C(O)CCCc1ccccc1 [PBA, 4-phenylbutyric acid, sodium salt]
time dependency of MCR1 expression (MCR1 expression): significant (time dependent) increase in MCR1 expression
kidney uptake of [203Pb]DOTA-MCR1 [1]: significantly blocked kidney uptake
tumor accumulation of [203Pb]DOTA-MCR1 [1]: did not affect tumor accumulation
MCR1 expression by RT-PCR (MC1R expression): Enhanced expression of MCR1
